Patent US11161844B2, “Cyclic substituted imidazo[4,5-c]quinoline derivatives” (Pfizer Inc., priority 2017, dated 2021)

Tests used:
mutant G2019S LRRK2 = mutant G2019S LRRK2 (Homo sapiens (Human), UniProt Q5S007, G2019S); assay: LRRK2 kinase assay (Lantha Screen), mutant G2019S; assay type: biochemical; conditions: 100 nM LRRKtide, 1 mM ATP, 2 μg/mL enzyme; single determination unless otherwise indicated
Protocol: (§1) LRRK2 kinase activity was measured using Lantha Screen technology from Invitrogen. GST-tagged truncated LRRK2 from Invitrogen (Cat #PV4874) was incubated with a fluorescein-labeled peptide substrate based upon ezrin/radixin/moesin (ERM), also known as LRRKtide (Invitrogen cat #PR8976A), in the presence of a dose response of compound. Upon completion, the assay was stopped and detected with a terbium labeled anti-phospho-ERM antibody (Invitrogen, cat #PR8975A). The assay was carried out under the following protocol: The compound dose response was prepared by diluting compound to a top concentration of 0.3 mM in 100% DMSO and serial diluted by half-log in DMSO to give an 11 point curve, 100× final assay concentration. Using Echo acoustic dispensing, 60 nL of compound was transferred to a low volume Corning 384-well assay plate. 3 μL of a working solution of substrate (200 nM LRRKtide, 2 mM ATP) prepared in assay buffer (50 mM HEPES, pH 7.5, 3 mM MgCl2, with 2 mM DTT and 0.01% Brij35 added fresh) was added to the 60 nL compound assay plate. The kinase reaction was started with 3 μL of a working solution of LRRK2 enzyme at a concentration of 4 μg/mL. The final reaction concentrations were 100 nM LRRKtide, 1 mM ATP, 2 μg/mL LRRK2 enzyme and a compound dose response with a top dose of 3 μM. The reaction was allowed to progress at room temperature for 30 minutes and then stopped with the addition of 6 μL of detection buffer (20 mM Tris pH 7.6, 0.01% NP-40, 6 mM EDTA with 2 nM terbium labeled anti-phospho-ERM). After an incubation of 1 hour at room temperature, the plate was read on an Envision with an excitation wavelength of 340 nm and a reading emission at both 520 nm and 495 nm. The ratio of the 520 nm and 495 nm emission was used to analyze the data. Inhibition of mutant G2019S LRRK2 (Invitrogen cat #PV4881) was measured in the exact same method. All final concentrations of substrate ATP and enzyme were the same.

[1] = target: LRRK2, WT (GST-tagged truncated LRRK2) (Homo sapiens (Human), UniProt Q5S007); assay: LRRK2 kinase assay (Lantha Screen), wild type; assay type: biochemical; conditions: 100 nM LRRKtide, 1 mM ATP, 2 μg/mL enzyme; geometric mean of 2-4 determinations unless otherwise indicated
Protocol: as §1

mutant G2019S LRRK2, sequence (Q5S007 970-2527 G2019S): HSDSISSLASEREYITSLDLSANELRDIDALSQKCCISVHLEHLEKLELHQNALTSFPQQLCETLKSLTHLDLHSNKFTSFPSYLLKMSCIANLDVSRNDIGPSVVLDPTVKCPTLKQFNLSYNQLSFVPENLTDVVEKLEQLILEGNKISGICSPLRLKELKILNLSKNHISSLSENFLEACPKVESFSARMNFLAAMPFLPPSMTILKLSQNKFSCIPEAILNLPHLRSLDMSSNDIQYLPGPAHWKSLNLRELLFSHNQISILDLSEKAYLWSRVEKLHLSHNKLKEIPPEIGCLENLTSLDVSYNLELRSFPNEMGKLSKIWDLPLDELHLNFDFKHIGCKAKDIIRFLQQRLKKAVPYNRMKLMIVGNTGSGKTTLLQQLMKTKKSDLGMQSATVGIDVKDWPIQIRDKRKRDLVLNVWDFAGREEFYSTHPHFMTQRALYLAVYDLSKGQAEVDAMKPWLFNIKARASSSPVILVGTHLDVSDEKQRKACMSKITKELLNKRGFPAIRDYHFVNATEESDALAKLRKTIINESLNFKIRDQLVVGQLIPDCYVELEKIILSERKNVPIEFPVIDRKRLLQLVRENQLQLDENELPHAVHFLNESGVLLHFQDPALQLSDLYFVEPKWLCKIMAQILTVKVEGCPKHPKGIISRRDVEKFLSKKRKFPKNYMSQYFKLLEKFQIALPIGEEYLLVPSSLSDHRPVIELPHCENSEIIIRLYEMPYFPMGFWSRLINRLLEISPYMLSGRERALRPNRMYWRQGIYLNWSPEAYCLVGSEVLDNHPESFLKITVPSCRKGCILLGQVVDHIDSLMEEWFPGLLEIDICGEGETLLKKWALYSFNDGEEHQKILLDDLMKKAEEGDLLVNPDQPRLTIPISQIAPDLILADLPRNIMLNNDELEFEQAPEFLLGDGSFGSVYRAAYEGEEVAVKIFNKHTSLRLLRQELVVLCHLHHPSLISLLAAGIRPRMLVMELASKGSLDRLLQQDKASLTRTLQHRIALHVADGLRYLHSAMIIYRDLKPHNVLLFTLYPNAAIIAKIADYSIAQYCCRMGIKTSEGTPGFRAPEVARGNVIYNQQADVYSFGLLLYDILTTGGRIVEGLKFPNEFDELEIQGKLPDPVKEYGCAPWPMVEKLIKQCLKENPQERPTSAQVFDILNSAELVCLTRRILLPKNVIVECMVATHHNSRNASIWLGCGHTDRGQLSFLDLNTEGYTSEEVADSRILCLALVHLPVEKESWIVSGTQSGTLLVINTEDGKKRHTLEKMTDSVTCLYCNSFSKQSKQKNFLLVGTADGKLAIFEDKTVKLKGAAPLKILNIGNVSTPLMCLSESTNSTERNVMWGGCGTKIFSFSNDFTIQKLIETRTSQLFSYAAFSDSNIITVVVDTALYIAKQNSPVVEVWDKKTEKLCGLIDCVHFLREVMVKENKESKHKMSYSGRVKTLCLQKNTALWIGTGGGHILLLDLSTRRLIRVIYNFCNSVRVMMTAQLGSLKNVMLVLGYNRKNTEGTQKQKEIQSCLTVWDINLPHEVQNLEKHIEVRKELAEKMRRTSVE
LRRK2, WT (GST-tagged truncated LRRK2), sequence (Q5S007 970-2527): as the sequence (Q5S007 970-2527 G2019S) above, with S1050G counted along it

| SMILES | IC50 (mutant G2019S LRRK2) [nM] | IC50 [1] [nM] |
| --- | --- | --- |
| N#CCC1CC(n2c([C@H]3CCOC3)nc3cnc4ccc(Cl)cc4c32)CCO1 (stereo partly drawn) [Example 30, [cis-4-{8-chloro-2-[(3R)-tetrahydrofuran-3-yl]-1H-imidazo[4,5-c]quinolin-1-yl}tetrahydro-2H-pyran-2-yl]acetonitrile] | 3.02 | 6.06 |
| CC1CC(c2nc3cnc4ccc(Cl)cc4c3n2[C@@H]2CCO[C@H](C)C2)CO1 (stereo partly drawn) [Example 10, 8-chloro-2-(5-methyltetrahydrofuran-3-yl)-1-[(2R,4R)-2-methyltetrahydro-2H-pyran-4-yl]-1H-imidazo[4,5-c]quinoline] | 23.3 | 23.1 |
| CN1CC[C@@H](n2c3c(cnc4ccc(C#N)cc43)nc2[C@H]2C[C@@H](F)C2)C1 [Example 24, 2-(cis-3-fluorocyclobutyl)-1-[(3R)-1-methylpyrrolidin-3-yl]-1H-imidazo[4,5-c]quinoline-8-carbonitrile] | 22.4 | 5.27 |
| CO[C@H]1C[C@@H](c2nc3cnc4ccc(Cl)cc4c3n2[C@@H]2CCO[C@H](C)C2)C1 [Example 6, 8-chloro-2-(cis-3-methoxycyclobutyl)-1-[(2R,4R)-2-methyltetrahydro-2H-pyran-4-yl]-1H-imidazo[4,5-c]quinoline] | 11.9 | 19.1 |
| CN1CC(n2c(C3CCC(F)C3)nc3cnc4ccc(C#N)cc4c32)C(F)(F)C1 (stereo not drawn) [Example 58, 1-(4,4-difluoro-1-methylpyrrolidin-3-yl)-2-(3-fluorocyclopentyl)-1H-imidazo[4,5-c]quinoline-8-carbonitrile] | 21.2 | 12.2 |
| N#CC[C@@H]1C[C@H](n2c(C3CC(F)(F)C3)nc3cnc4ccc(Cl)cc4c32)CCO1 (single isomer, unassigned) [Example 27, {cis-4-[8-chloro-2-(3,3-difluorocyclobutyl)-1H-imidazo[4,5-c]quinolin-1-yl]tetrahydro-2H-pyran-2-yl}acetonitrile] | 12.2 | 12 |
| CN1CC(n2c(C3CCC(F)C3)nc3cnc4ccc(C#N)cc4c32)C(F)(F)C1 (stereo not drawn) [Example 59, 1-(4,4-difluoro-1-methylpyrrolidin-3-yl)-2-(3-fluorocyclopentyl)-1H-imidazo[4,5-c]quinoline-8-carbonitrile] | 141 | 30.5 |
| C[C@@H]1C[C@H](n2c(C3CCC(F)(F)CC3)nc3cnc4ccc(C#N)cc4c32)CCO1 [Example 17, 2-(4,4-difluorocyclohexyl)-1-[(2R,4R)-2-methyltetrahydro-2H-pyran-4-yl]-1H-imidazo[4,5-c]quinoline-8-carbonitrile] | 11.2 | 15.6 |
| C[C@@H]1C[C@H](n2c3c(cnc4ccc(C#N)cc43)nc2[C@H]2C[C@@H](F)C2)CCO1 [Example 19, 2-(cis-3-fluorocyclobutyl)-1-[(2R,4R)-2-methyltetrahydro-2H-pyran-4-yl]-1H-imidazo[4,5-c]quinoline-8-carbonitrile] | 12.4 | 16.1 |
| C[C@@H]1C[C@H](n2c(C3CCC(F)C3)nc3cnc4ccc(C#N)cc4c32)CCO1 (stereo partly drawn) [Example 14, 2-[(cis)-3-fluorocyclopentyl]-1-[(2R,4R)-2-methyltetrahydro-2H-pyran-4-yl]-1H-imidazo[4,5-c]quinoline-8-carbonitrile] | 10.8 | 15.2 |
| CC1(C)CC(n2c(C3CCC(F)C3)nc3cnc4ccc(C#N)cc4c32)CCO1 (stereo not drawn) [Example 39, 1-(2,2-dimethyltetrahydro-2H-pyran-4-yl)-2-(3-fluorocyclopentyl)-1H-imidazo[4,5-c]quinoline-8-carbonitrile] | 4.41 | 4.65 |
| CN1CC[C@@H](n2c([C@H]3CCOC3)nc3cnc4ccc(C#N)cc4c32)C1 [Example 25, 1-[(3R)-1-methylpyrrolidin-3-yl]-2-[(3R)-tetrahydrofuran-3-yl]-1H-imidazo[4,5-c]quinoline-8-carbonitrile] | 80 | 32.5 |
| C[C@@H]1C[C@H](n2c(C3COC3)nc3cnc4ccc(Cl)cc4c32)CCO1 [Example 12, 8-chloro-1-[(2R,4R)-2-methyltetrahydro-2H-pyran-4-yl]-2-(oxetan-3-yl)-1H-imidazo[4,5-c]quinoline] | 21.2 | 23 |
| C[C@@H]1C[C@H](n2c3c(cnc4ccc(Cl)cc43)nc2[C@H]2CC[C@@H](F)CC2)CCO1 [Example 1, 8-chloro-2-(cis-4-fluorocyclohexyl)-1-[(2R,4R)-2-methyltetrahydro-2H-pyran-4-yl]-1H-imidazo[4,5-c]quinoline] | 4.75 | 7.32 |
| CN1CC(n2c(C3CCC(F)C3)nc3cnc4ccc(C#N)cc4c32)C(F)(F)C1 (stereo not drawn) [Example 64, 1-(4,4-difluoro-1-methylpyrrolidin-3-yl)-2-(3-fluorocyclopentyl)-1H-imidazo[4,5-c]quinoline-8-carbonitrile] | – | 2300 |

The remaining molecules from weak to strong by IC50 [1], led by results:

| IC50 (mutant G2019S LRRK2) [nM] | IC50 [1] [nM] | SMILES |
| --- | --- | --- |
| 77 | 59.6 | CN1CC[C@@H](n2c(C3CCC(F)C3)nc3cnc4ccc(F)cc4c32)C1 (stereo partly drawn) [Example 34, 8-fluoro-2-[cis-3-fluorocyclopentyl]-1-[(3R)-1-methylpyrrolidin-3-yl]-1H-imidazo[4,5-c]quinoline] |
| 97.4 | 57.1 | CN1CC(n2c(C3CCC(F)C3)nc3cnc4ccc(C#N)cc4c32)C(F)(F)C1 (stereo not drawn) [Example 60, 1-(4,4-difluoro-1-methylpyrrolidin-3-yl)-2-(3-fluorocyclopentyl)-1H-imidazo[4,5-c]quinoline-8-carbonitrile] |
| 46 | 46.1 | CC1(C)CC(n2c(C3CCC(F)C3)nc3cnc4ccc(C#N)cc4c32)CCO1 (stereo not drawn) [Example 42, 1-(2,2-dimethyltetrahydro-2H-pyran-4-yl)-2-(3-fluorocyclopentyl)-1H-imidazo[4,5-c]quinoline-8-carbonitrile] |
| 11.3 | 18.5 | C[C@@H]1C[C@H](n2c(C3CCCO3)nc3cnc4ccc(Cl)cc4c32)CCO1 (stereo partly drawn) [Example 9, 8-chloro-1-[(2R,4R)-2-methyltetrahydro-2H-pyran-4-yl]-2-(tetrahydrofuran-2-yl)-1H-imidazo[4,5-c]quinoline] |
| 33 | 10.9 | CN1CC[C@@H](n2c3c(cnc4ccc(C#N)cc43)nc2[C@H]2CC[C@@H](F)CC2)C1 [Example 23, 2-(cis-4-fluorocyclohexyl)-1-[(3R)-1-methylpyrrolidin-3-yl]-1H-imidazo[4,5-c]quinoline-8-carbonitrile] |
| 5.71 | 9.79 | C[C@@H]1C[C@H](n2c([C@H]3CCOC3)nc3cnc4ccc(C(F)(F)F)cc4c32)CCO1 [Example 26, 1-[(2R,4R)-2-methyltetrahydro-2H-pyran-4-yl]-2-[(3R)-tetrahydrofuran-3-yl]-8-(trifluoromethyl)-1H-imidazo[4,5-c]quinoline] |
| 5.49 | 8.99 | C[C@@H]1C[C@H](n2c3c(cnc4ccc(Cl)cc43)nc2[C@H]2C[C@@H](F)C2)CCO1 [Example 2, 8-chloro-2-(cis-3-fluorocyclobutyl)-1-[(2R,4R)-2-methyltetrahydro-2H-pyran-4-yl]-1H-imidazo[4,5-c]quinoline] |
| 3.84 | 6.29 | C[C@@H]1C[C@H](n2c(C3CCC(F)C3)nc3cnc4ccc(C#N)cc4c32)CCO1 (single isomer, unassigned) [Example 13] |
